Laboratory results reported in paper PMC8541546, “Identification of HLA-A2-Restricted Mutant Epitopes from Neoantigens of Esophageal Squamous Cell Carcinoma” (Vaccines, 2021).

Key:
[1] = tested on: KYSE140-MUT cells; assay: Intracellular staining (granzyme B) of CTLs from immunized Tg mice; format: in vivo, HLA-A2.1/K^b Tg mice; conditions: 100 μg/mouse s.c. with CpG ODN 1826 once a week for three weeks; spleen lymphocytes re-stimulated with MUT peptide; KYSE140-MUT target cells; n = 5 per group
Description: To investigate whether neoepitopes could induce a peptide-specific T cell response in vivo, HLA-A2.1/K^b Tg mice were used and immunized according to the procedure de-scribed previously. In brief, mutant peptides or WH-mutant peptides (100 μg per mouse) with CpG-ODN 1826 (30 μg per mouse) were injected s.c. in the back of HLA-A2.1/K^b Tg mice (five mice per group, randomly grouped) once a week for three weeks. The normal saline (NS) group was immunized s.c. only with CpG ODN 1826 (30 μg/mouse) once a week for three weeks. Five days after the last injection, spleen lymphocytes were isolated and cultured at the concentration of 5 × 10^6 cells/mL in RPMI 1640 medium. These cells were induced by the same mutant peptides (10 μg/mL) that were used for in vivo stimulation and mIL-2 (30 U/mL) for a week. Intracellular cytokine staining assay (ICS) and cytotoxic assay (E: T ratios = 20:1, 40:1, 80:1) were performed after a week induced in vitro [22].
To test the MUT peptides stimulation of CTL response in vivo, peptide-specific T cells induced from Tg mice were co-cultured with tumor cell lines transfected with WT or MUT minigenes, as described in the in vitro assay. These T cells were marked by surface marker antibodies anti-mouse CD3 and CD8α before fixation and permeabilization. Intracellular cytokines were marked by anti-mouse IFN-γ or anti-mouse granzyme B, respectively, and analyzed by flow cytometry (BD FACSCelesta™, USA).

[2] = tested on: peptide-pulsed T2A2 cells; assay: IFN-γ intracellular staining of peptide-induced T cells from donor PBMCs; format: cell-based, human; conditions: PBMCs of HLA-A2+ donors B–F, DCs pulsed with 10 μg/mL peptide, three rounds
Description: (§1) DCs involve and play an important role in initiating CD8^+ T cell response. Consequently, ten HLA-A2^+ healthy donors’ PBMCs were isolated, autologous DCs were generated, and CTLs were induced according to the procedure described previously. In brief, PBMCs were seeded at a density of 5 × 10^6 cells/well in a 6-well plate, and after 3 h, the non-adherent cells were removed and cryopreserved for future incubation with mature autologous DCs. Differentiation of the adherent cells into dendritic cells was induced by GM-CSF (100 ng/mL, #300-03, PeproTech, Rocky Hill, NJ, USA) and IL-4 (100 ng/mL; #200-04, PeproTech, USA), with replenishment every 2 days. On day 5, maturation of DCs was induced using 100 ng/mL LPS (#L4516, Sigma-Aldrich, St. Louis, MO, USA), and maturation was checked on day 8 by flow cytometry (BD FACSCelesta™) using markers for anti-human HLA-DR, anti-human CD80, and anti-human CD86. Then, mature DCs (1 × 10^5) were pulsed with each 10 μg /mL individual peptide or no peptides (control) for 2 h at 37 °C. Next, peptide-pulsed DCs were used to prime the previously cryopreserved autologous peripheral blood lymphocytes (PBLs) at a DC/PBL ratio of 1:10 using complete RPMI-1640 media supplemented with 100 IU/mL rhIL-2 (#200-02, PeproTech, USA) and 10 ng/mL rhIL-7 (#200-07, PeproTech, USA). Half of the feeding medium was replenished every 2 days. After 7 days, PBLs were restimulated with freshly pulsed autologous DCs every 7 days.
When target cells were peptide-pulsed T2A2 cells (MUT peptide or its corresponding WT peptide), peptide-specific T cells (from HLA-A2^+ healthy donors B–F) stimulated by MUT peptides were co-cultured with these cells in the presence of BFA for 5 h. Then T cells were marked by anti-human CD3 and anti-human CD8α monoclonal antibody. Thirty minutes later, cells were fixed by fixation buffer (Thermo Scientific, Waltham, MA, USA) for thirty minutes and washed by permeabilization buffer (Thermo Scientific, USA). Permeabilized T cells were marked by anti-human IFN-γ monoclonal antibody.

[3] = tested on: KYSE140-MUT cells; assay: Intracellular cytokine assay with minigene-transfected tumor cells in vitro; format: cell-based, human; conditions: donors G–K; KYSE140/KYSE150 transfected with WT or MUT minigene; IFN-γ and granzyme B
Description: as §1
Then two vectors were transduced into KYSE140 (HLA-A2^+) and KYSE150 (HLA-A2^−) to get KYSE140-MUT (HLA-A2^+, MUT peptide^+), KYSE140-WT (HLA-A2^+, MUT peptide^−), KYSE150-MUT (HLA-A2^−, MUT peptide^+) and KYSE150-WT (HLA-A2^−, MUT peptide^−) cells (see Supplementary Materials for details).
As for the transfected cells serving as target cells in the in vitro investigation, peptide-specific T cells (from HLA-A2^+ healthy donors G–K) induced by MUT peptides were co-cultured with tumor cell lines transfected with WT or MUT minigenes in IMDM medium in the presence of BFA for 5 h. […]

[4] = biological target: T1, HLA-A*0201 molecule (Homo sapiens, UniProt P04439, D140Y/D185E/D98H/E176V/E277Q/G131W/G231S/I119V/I121R/I166T/I218V/L300P/L318F/N151K/N90K/P208A/P217A/Q86G/Q94H/R138H/R169H/T345S); assay: T2A2 cell-binding assay; conditions: T2A2 cells; FI = (MFI of peptide - MFI of control without peptide)/MFI of control without peptide; anti-HLA-A2 BB7.2, flow cytometry; FI > 1 = high binding affinity
T1 construct: T2A2 cells (TAP-deficient HLA-A2 molecules overexpressing, cultured in IMDM medium); host or cells: T2A2 cells
Description: The binding affinity of neoepitope to the MHC molecule and the stable neoepitope/MHC complex are critical for inducing T cell immune response, so we first performed a T2A2 cell-binding assay and stabilization assay. The T2A2 cell-binding assay was measured as in our previous study. The binding affinity was computed as follows: fluorescence index (FI) = (mean fluorescence intensity (MFI) of peptide group-MFI of the dissolved buffer without peptide group)/MFI of the dissolved buffer without peptide group.

| Sequence | granzyme B expression of CTLs [1] | IFN-γ release of MUT peptide-induced T cells, MUT versus WT peptide-loaded T2A2 cells [2] | processing and presentation of MUT peptide by transfected cells, recognized by CTLs [3] | FI (fluorescence index) [4] |
| --- | --- | --- | --- | --- |
| ILWRQDINL [NFE2L2-D13N] | 2.3% | immunogenic | endogenously processed and presented by transfected cells | 1.67 |
| LLGPNSFEV [TP53-R267P] | 0.7% | immunogenic | endogenously processed and presented by transfected cells | 1.81 |
| QVTDFLAPL [PCLO-E4090Q] | 1.5% | immunogenic | endogenously processed and presented by transfected cells | 1.85 |
